# Test results from article PMC10958225, “Therapeutic potential of orally applied KB-R7943 in streptozotocin-induced neuropathy in rats” (Heliyon, 2024).
# Like-named read-outs stand apart in the source and are kept apart here.
# Test: Pilot PK study of orally applied KB-R7943 in control and STZ-induced diabetic rats (LC-MS/MS)
# Assay type: in vivo, rat
# Conditions: for AUC(0-inf) / Cmax / Tmax / half-life / AUC(0-t) / Kp: Wistar, rat, po, 10 mg/kg; for AUC(0-t): read-out: AUC(0-24); for Kp: read-out: AUC(0-24) tissue/AUC (0-24) plasma; for Vd (volume of distribution): dose/(λ × AUC 0–24); for Cl (clearance): dose/AUC0-24
# Description: Chromatographic separation was achieved by injecting 5 μL of the sample extract (on each instrument) into a Zorbax SB-C8 150 mm × 4.6 mm × 1.8 μm column. The mobile phase was a mixture in a gradient mode of two components: solvent A - 0.1% formic acid in water and solvent B - 0.1% formic acid in acetonitrile. The flow rate was set to 0.400 ml/min with the following gradient program: 0.0–0.5 min 90% solvent A, 0.5–10.0 min 10% solvent A, 10.0–12.0 min 10% solvent A, 12.0–12.1 min 90% solvent A, 12.1–13.0 min 90% solvent A. Mass spectrometric detection was performed with positive electrospray (ESI(+)). Analytes were determined by selecting two characteristic target reactions (MRM transitions) and the retention time of the analytes. The following MS parameters were kept constant during the analysis: nebulizer voltage 4800 V for positive ionization. The temperature of the cone was set at 300 °C, the temperature of the heated probe at 400 °C, the gas flowed through the nebulizer at 3 l/min, and the flow rate of the drying gas was 10 l/min. Two product ions and one precursor ion were selected for analyte identification (Table 1).
# 200 mg of the sample (plasma, urine, homogenate) was transferred into 1.5 ml Eppendorf tubes, 10 μl of the internal standard solution was added and thoroughly mixed using a rotary shaker, and then 1 ml of the extracting solution of 0.1% formic acid in acetonitrile, was added. After ultrasonic stirring for 15 min, the tubes were centrifuged at 14,000 rpm for 5 min. Approximately 1 ml of the supernatant was decanted and transferred to a 15 ml Falcon plastic tube, 1 ml of the extracting solution (0.1% formic acid in acetonitrite) was added to the precipitate, and the extraction procedure was repeated. […] successive extracts were combined, 3 ml of hexane was added, and mixed on a rotary shaker for 5 min, after which the top layer of hexane was separated, and the purification procedure was repeated 2 more times. The purified extract was transferred to a 5 ml glass vial and evaporated to dryness in an FMS Super Vap 24 at 45 °C under nitrogen flow. 200 μL of the extractant was added to the vials, and the remains of the analyte were washed off the walls of the vial by stirring the solution on a rotary shaker for 3 min, after which the resulting solution was transferred into glass vials for HPLC analysis. With each batch of samples, appropriate matrix controls were prepared and extracted with the addition of KB- R7943 at 0, 0.1, 1, 10, 100, 1000, 5000, 20,000, and 200,000 ng/g and extracted simultaneously with the samples (Fig. 2).
# Experiment 1 (Fig. 3A) was designed as a pilot PK study to assess the body distribution of orally applied KB-R7943 and to inform about some important PK parameters. Two groups, i.e., controls (n = 9) and STZ-induced diabetic models (n = 9), were included in the experiment. Each rat was placed in an individual metabolic cage and kept there until the administration of the drug. The KB-R7943 was applied once, p.o., in a 10 mg/kg dose with gavage. OraPlus was a vehiculum (16 gauge feeding tube 10 ml/kg). After applying of the KB-R7943, each rat was returned to their cage, and blood and urine samples were collected at 1st, 6th, and 24th hours (different n = 3 at each time-point). Metabolic cages were specially designed to separate feces from urine through the funnel, and a separation cone was used.
# Blood samples were collected in EDTA-containing tubes with cardiopunction under ketamine-xylasine anesthesia (100 mg/kg and 10 mg/kg, respectively). After 1 h incubation (+4/+8 °C), blood was centrifugated 1000 g, and the plasma was used for the analysis after that.
# Isolation of tissue samples of the heart and parts of the brain was performed after perfusion of the upper body of the rat with a phosphate-buffered saline (PBS) using a perfusion pump (BT100-2J LongerPump, Halma PLC, UK). Homogenates were prepared as 1:4 ratios (v/v) with PBS and stored at −80 °C until analysis. […]
# [1] = AUC tissue/AUC plasma, 10 mg/kg p.o. once
# [2] = cortex, STZ-diabetic rats, 10 mg/kg p.o. once
# [3] = cortex, control rats, 10 mg/kg p.o. once
# [4] = cortex, cortex, STZ-diabetic rats, 10 mg/kg p.o. once
# [5] = cortex, cortex, control rats, 10 mg/kg p.o. once
# [6] = heart, STZ-diabetic rats, 10 mg/kg p.o. once
# [7] = heart, control rats, 10 mg/kg p.o. once
# [8] = hippocampus, STZ-diabetic rats, 10 mg/kg p.o. once
# [9] = hippocampus, control rats, 10 mg/kg p.o. once
# [10] = hippocampus, hippocampus, STZ-diabetic rats, 10 mg/kg p.o. once
# [11] = hippocampus, hippocampus, control rats, 10 mg/kg p.o. once
# [12] = hypothalamus, STZ-diabetic rats, 10 mg/kg p.o. once
# [13] = hypothalamus, control rats, 10 mg/kg p.o. once
# [14] = hypothalamus, hypothalamus, STZ-diabetic rats, 10 mg/kg p.o. once
# [15] = hypothalamus, hypothalamus, control rats, 10 mg/kg p.o. once
# [16] = plasma, STZ-diabetic rats, 10 mg/kg p.o. once
# [17] = plasma, control rats, 10 mg/kg p.o. once
# [18] = urine, STZ-diabetic rats, 10 mg/kg p.o. once
# [19] = urine, control rats, 10 mg/kg p.o. once
smiles,measurement,setting,value
"N=C(N)SCCc1ccc(OCc2ccc([N+](=O)[O-])cc2)cc1 [KB-R7943, [(2-{4-[(4-nitrophenyl)methoxy]phenyl}ethyl)sulfanyl]methanimidamide]","heart penetration, times higher in control group vs. diabetic rats",[1],1.2 times
same,"hippocampus penetration, times higher in control group vs. diabetic rats",[1],over 2.5 times
same,AUC(0-inf),[2],1000 ng·h/mL
same,Cmax,[2],103 ng/mL
same,Tmax,[2],1 h
same,half-life,[2],7.7 h
same,Cmax,[3],11.5 ng/mL
same,Tmax,[3],24 h
same,AUC(0-t),[4],880 ng·h/mL
same,Kp,[4],14.5
same,AUC(0-t),[5],232 ng·h/mL
same,Kp,[5],14.2
same,Cmax,[6],5600 ng/mL
same,Tmax,[6],1 h
same,half-life,[6],5.7 h
same,Cmax,[7],893 ng/mL
same,Tmax,[7],1 h
same,half-life,[7],7 h
same,Kp,"heart, heart, STZ-diabetic rats, 10 mg/kg p.o. once",499
same,Kp,"heart, heart, control rats, 10 mg/kg p.o. once",622
same,AUC(0-inf),[8],865 ng·h/mL
same,Cmax,[8],57 ng/mL
same,Tmax,[8],1 h
same,half-life,[8],11.6 h
same,Cmax,[9],39.6 ng/mL
same,Tmax,[9],24 h
same,AUC(0-t),[10],645 ng·h/mL
same,Kp,[10],10.7
same,AUC(0-t),[11],449 ng·h/mL
same,Kp,[11],27.4
same,AUC(0-inf),[12],1020 ng·h/mL
same,Cmax,[12],75 ng/mL
same,Tmax,[12],1 h
same,half-life,[12],13.7 h
same,Cmax,[13],9.5 ng/mL
same,Tmax,[13],24 h
same,AUC(0-t),[14],668 ng·h/mL
same,Kp,[14],11
same,AUC(0-t),[15],215 ng·h/mL
same,Kp,[15],13.1
same,AUC(0-inf),[16],61.7 ng·h/mL
same,Cmax,[16],11 ng/mL
same,Tmax,[16],1 h
same,half-life,[16],4.2 h
same,AUC(0-inf),[17],17.7 ng·h/mL
same,Cmax,[17],3.2 ng/mL
same,Tmax,[17],1 h
same,half-life,[17],6.1 h
same,AUC(0-t),"plasma, plasma, STZ-diabetic rats, 10 mg/kg p.o. once",60.6 ng·h/mL
same,AUC(0-t),"plasma, plasma, control rats, 10 mg/kg p.o. once",16.4 ng·h/mL
same,Tmax,"plasma, systemic circulation after oral application, rats",~1 h
same,Cmax,[18],59.3 ng/mL
same,Tmax,[18],24 h
same,Cmax,[19],47.2 ng/mL
same,Tmax,[19],24 h
same,AUC(0-t),"urine, urine, STZ-diabetic rats, 10 mg/kg p.o. once",974 ng·h/mL
same,AUC(0-t),"urine, urine, control rats, 10 mg/kg p.o. once",727 ng·h/mL
same,β of linear regression Ln(Conc) vs time,"cortex concentration, controls, 10 mg/kg p.o. once","β = 0.015, p = 0.703"
same,β of linear regression Ln(Conc) vs time,"cortex concentration, diabetes, 10 mg/kg p.o. once","β = −0.075, p = 0.008"
same,%Extrap,[2],"12,20%"
same,ƛ (terminal slope),[2],−0.07
same,%Extrap,[3],"142,00%"
same,ƛ (terminal slope),[3],0.02
same,β of linear regression Ln(Conc) vs time,"heart concentration, controls, 10 mg/kg p.o. once","β = −0.107, p = 0.003"
same,β of linear regression Ln(Conc) vs time,"heart concentration, diabetes, 10 mg/kg p.o. once","β = −0.125, p = 0.026"
same,%Extrap,[6],"6,20%"
same,ƛ (terminal slope),[6],−0.12
same,%Extrap,[7],"8,4%"
same,ƛ (terminal slope),[7],−0.11
same,β of linear regression Ln(Conc) vs time,"hippocampus concentration, controls, 10 mg/kg p.o. once","β = −0.037, p = 0.283"
same,β of linear regression Ln(Conc) vs time,"hippocampus concentration, diabetes, 10 mg/kg p.o. once","β = −0.048, p = 0.097"
same,%Extrap,[8],"25,40%"
same,ƛ (terminal slope),[8],−0.05
same,ƛ (terminal slope),[9],0.04
same,β of linear regression Ln(Conc) vs time,"hypothalamus concentration, controls, 10 mg/kg p.o. once","β = −0.007, p = 0.830"
same,β of linear regression Ln(Conc) vs time,"hypothalamus concentration, diabetes, 10 mg/kg p.o. once","β = −0.045, p = 0.127"
same,%Extrap,[12],"34,50%"
same,ƛ (terminal slope),[12],−0.04
same,%Extrap,[13],"111,50%"
same,ƛ (terminal slope),[13],0.01
same,β of linear regression Ln(Conc) vs time,"plasma concentration, controls, 10 mg/kg p.o. once","β = 0.094, p = 0.036"
same,β of linear regression Ln(Conc) vs time,"plasma concentration, diabetes, 10 mg/kg p.o. once","β = 0.163, p = 0.017"
same,"AUC(0-24), times higher in rats with diabetes vs. controls","plasma, 10 mg/kg p.o. once",Over 3 times
same,"Vd, times lower in rats with diabetes vs. controls","plasma, 10 mg/kg p.o. once",over 7 times
same,"decline of the plasma concentration, rats with diabetes vs. controls","plasma, 10 mg/kg p.o. once",over one and half times faster decline
same,"systemic clearance, times lower in rats with diabetes vs. controls","plasma, 10 mg/kg p.o. once",over 4 times
same,%Extrap,[16],"1,90%"
same,ƛ (terminal slope),[16],−0.16
same,Vd (volume of distribution),[16],288.78 L
same,Cl (clearance),[16],46.20 L/h
same,%Extrap,[17],"7,40%"
same,Vd (volume of distribution),[17],2100.27 L
same,Cl (clearance),[17],189.02 L/h
same,β of linear regression Ln(Conc) vs time,"urine concentration, controls, 10 mg/kg p.o. once","β = −0.074, p = 0.158"
same,β of linear regression Ln(Conc) vs time,"urine concentration, diabetes, 10 mg/kg p.o. once","β = −0.041, p = 0.455"
same,%Extrap,[18],"196,30%"
same,ƛ (terminal slope),[18],−0.04
same,ƛ (terminal slope),[19],0.07
